Measurements taken from patent US20150105252A1, “SUBSTITUTED PYRAZOLES AS HERBICIDES” (E I DU PONT DE NEMOURS AND COMPANY, priority 2013, published 2015).

Key:
[1] = test system: barnyardgrass; test: Test A preemergence; format: in vivo, Echinochloa crus-galli; conditions: preemergence
In short: (§1)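 Visual injury rating, 0–100 (0 no effect, 100 complete control), vs untreated controls ~10 days after treatment in greenhouse. Pre: directed soil spray on seeded loam/sand. Post: 2–10 cm plants, 1–2 leaf stage. Formulation: non-phytotoxic solvent mix + surfactant.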

[2] = test system: crabgrass, large; test: Test A preemergence; format: in vivo, Digitaria sanguinalis; conditions: preemergence; for Crabgrass, Large plant response rating (0 to 100 scale): visual injury approx. 10 days after treatment
In short: as §1

[3] = test system: foxtail, giant; test: Test A preemergence; format: in vivo, Setaria faberii; conditions: preemergence; for Foxtail, Giant plant response rating (0 to 100 scale): visual injury approx. 10 days after treatment
In short: as §1

[4] = test system: morningglory; test: Test A preemergence; format: in vivo, Ipomoea spp.; conditions: preemergence; for Morningglory plant response rating (0 to 100 scale): visual injury approx. 10 days after treatment
In short: as §1

[5] = test system: pigweed; test: Test A preemergence; format: in vivo, Amaranthus retroflexus; conditions: preemergence; for Pigweed plant response rating (0 to 100 scale): visual injury approx. 10 days after treatment
In short: as §1

[6] = test system: velvetleaf; test: Test A preemergence; format: in vivo, Abutilon theophrasti; conditions: preemergence; for Velvetleaf plant response rating (0 to 100 scale): visual injury approx. 10 days after treatment
In short: as §1

[7] = test system: wheat; test: Test A preemergence; format: in vivo, Triticum aestivum; conditions: preemergence; for Wheat plant response rating (0 to 100 scale): visual injury approx. 10 days after treatment
In short: as §1

[8] = test system: corn; test: Test A preemergence; format: in vivo, Zea mays; conditions: preemergence; for Corn plant response rating (0 to 100 scale): visual injury approx. 10 days after treatment
In short: as §1

[9] = test system: barnyardgrass; test: Test A postemergence; format: in vivo, Echinochloa crus-galli
In short: as §1

[10] = test system: crabgrass, large; test: Test A postemergence; format: in vivo, Digitaria sanguinalis
In short: as §1

[11] = test system: foxtail, giant; test: Test A postemergence; format: in vivo, Setaria faberii
In short: as §1

[12] = test system: morningglory; test: Test A postemergence; format: in vivo, Ipomoea spp.
In short: as §1

[13] = test system: pigweed; test: Test A postemergence; format: in vivo, Amaranthus retroflexus
In short: as §1

[14] = test system: velvetleaf; test: Test A postemergence; format: in vivo, Abutilon theophrasti
In short: as §1

[15] = test system: wheat; test: Test A postemergence; format: in vivo, Triticum aestivum
In short: as §1

[16] = test system: corn; test: Test A postemergence; format: in vivo, Zea mays
In short: as §1

[17] = test system: rice; test: Test B flood; format: in vivo, Oryza sativa; conditions: 250 g ai/ha, visual rating on 0 to 100 scale (0 no effect, 100 complete control), 13 to 15 days
In short: (§2)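 Greenhouse assay lasting 13 to 15 days. Treatment was into water flooding pots 3 cm deep, at the 2-leaf stage, with that level sustained afterwards. Scores compare treated with control plants visually, 100 denoting complete control and 0 no effect; a dash marks no test result.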

[18] = test system: sedge, umbrella; test: Test B flood; format: in vivo, Cyperus difformis; conditions: 250 g ai/ha, visual rating on 0 to 100 scale (0 no effect, 100 complete control), 13 to 15 days
In short: as §2

[19] = test system: ducksalad; test: Test B flood; format: in vivo, Heteranthera limosa; conditions: 250 g ai/ha, visual rating on 0 to 100 scale (0 no effect, 100 complete control), 13 to 15 days
In short: as §2

[20] = test system: barnyardgrass; test: Test B flood; format: in vivo, Echinochloa crus-galli; conditions: 250 g ai/ha, visual rating on 0 to 100 scale (0 no effect, 100 complete control), 13 to 15 days
In short: as §2

[21] = test system: rice; test: Test C flooded paddy test; format: in vivo, Oryza sativa; conditions: Flood
In short: (§3)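 Flooded 3 cm over soil; compound into paddy water; depth kept constant. Greenhouse 13–15 d.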

[22] = test system: sedge, umbrella; test: Test C flooded paddy test; format: in vivo, Cyperus difformis; conditions: Flood
In short: as §3

[23] = test system: ducksalad; test: Test C flooded paddy test; format: in vivo, Heteranthera limosa; conditions: Flood
In short: as §3

[24] = test system: barnyardgrass; test: Test C flooded paddy test; format: in vivo, Echinochloa crus-galli; conditions: Flood
In short: as §3

[25] = 500 g ai/ha, visual injury after approx. 10 days, 0 to 100 scale (0 no effect, 100 complete control)
[26] = Postemergence, 500 g ai/ha, 0 to 100 scale (0 no effect, 100 complete control)
[27] = postemergence, 125 g ai/ha, about 10 days, visual rating on 0 to 100 scale (0 no effect, 100 complete control)
[28] = Postemergence, 125 g ai/ha, 0 to 100 scale, 0 no effect, 100 complete control
[29] = 31 g ai/ha, scale 0 to 100 (0 no effect, 100 complete control)
[30] = 62 g ai/ha, scale 0 to 100 (0 no effect, 100 complete control)
[31] = 125 g ai/ha, scale 0 to 100 (0 no effect, 100 complete control)
[32] = 125 g ai/ha, visual injury, 0 to 100 scale, approx. 10 days

CCc1cc(C(=O)NC)nn1Cc1ccnc(C(F)(F)F)c1 [Compound 204]
Barnyardgrass plant response rating (0 to 100 scale, 0 is no effect, 100 is complete control) ([1]; 125 g ai/ha, visual injury approx. 10 days after treatment): 0
Barnyardgrass plant response rating [1, 25]: 80
Crabgrass, Large plant response rating (0 to 100 scale) ([2]; 125 g ai/ha): 100
Crabgrass, Large plant response rating [2, 25]: 100
Foxtail, Giant plant response rating (0 to 100 scale) ([3]; 125 g ai/ha): 50
Foxtail, Giant plant response rating [3, 25]: 100
Morningglory plant response rating (0 to 100 scale) ([4]; 125 g ai/ha): 30
Pigweed plant response rating (0 to 100 scale) ([5]; 125 g ai/ha): 100
Velvetleaf plant response rating (0 to 100 scale) ([6]; 125 g ai/ha): 10
Wheat plant response rating (0 to 100 scale) ([7]; 125 g ai/ha): 0
Corn plant response rating (0 to 100 scale) ([8]; 125 g ai/ha): 0
Corn plant response rating [8, 25]: 10
Barnyardgrass plant response rating [9, 26]: 50
Barnyardgrass plant response rating [9, 27]: 10
Crabgrass, Large plant response rating [10, 26]: 80
Crabgrass, Large plant response rating [10, 27]: 10
Foxtail, Giant plant response rating [11, 26]: 70
Foxtail, Giant plant response rating [11, 27]: 10
Morningglory plant response rating [12, 28]: 80
Morningglory plant response rating [12, 26]: 90
Pigweed plant response rating [13, 28]: 90
Pigweed plant response rating [13, 26]: 90
Velvetleaf plant response rating [14, 28]: 40
Velvetleaf plant response rating [14, 26]: 50
Wheat plant response rating [15, 28]: 0
Wheat plant response rating [15, 26]: 10
Corn plant response rating [16, 26]: 30
Corn plant response rating [16, 27]: 10
Plant response rating, Rice [17]: 0
Plant response rating, Sedge, Umbrella [18]: 90
Plant response rating, Ducksalad [19]: 95
Plant response rating, Barnyardgrass [20]: 0
Plant response rating, Rice [21, 29]: 0
Plant response rating, Rice [21, 30]: 0
Plant response rating, Rice [21, 31]: 0
Plant response rating, Rice ([21]; 250 g ai/ha, scale 0 to 100): 0
Plant response rating, Sedge, Umbrella [22, 29]: 0
Plant response rating, Sedge, Umbrella [22, 30]: 60
Plant response rating, Sedge, Umbrella [22, 31]: 80
Plant response rating, Sedge, Umbrella ([22]; 250 g ai/ha, scale 0 to 100): 80
Plant response rating, Ducksalad [23, 29]: 0
Plant response rating, Ducksalad [23, 30]: 0
Plant response rating, Ducksalad [23, 31]: 50
Plant response rating, Ducksalad ([23]; 250 g ai/ha, scale 0 to 100): 90
Plant response rating, Barnyardgrass [24, 29]: 0
Plant response rating, Barnyardgrass [24, 30]: 0
Plant response rating, Barnyardgrass [24, 31]: 0
Plant response rating, Barnyardgrass ([24]; 250 g ai/ha, scale 0 to 100): 0

CCCNC(=O)c1cc(COC)n(Cc2ccnc(C(F)(F)F)c2)n1 [Compound 168]
Barnyardgrass plant response rating [1, 32]: 20
Barnyardgrass plant response rating [1, 25]: 100
Crabgrass, Large plant response rating (0 to 100 scale) ([2]; 125 g ai/ha): 100
Crabgrass, Large plant response rating [2, 25]: 100
Foxtail, Giant plant response rating (0 to 100 scale) ([3]; 125 g ai/ha): 90
Foxtail, Giant plant response rating [3, 25]: 100
Morningglory plant response rating (0 to 100 scale) ([4]; 125 g ai/ha): 80
Morningglory plant response rating [4, 25]: 100
Pigweed plant response rating (0 to 100 scale) ([5]; 125 g ai/ha): 100
Pigweed plant response rating [5, 25]: 100
Velvetleaf plant response rating (0 to 100 scale) ([6]; 125 g ai/ha): 20
Velvetleaf plant response rating [6, 25]: 100
Wheat plant response rating (0 to 100 scale) ([7]; 125 g ai/ha): 10
Wheat plant response rating [7, 25]: 70
Corn plant response rating (0 to 100 scale) ([8]; 125 g ai/ha): 0
Corn plant response rating [8, 25]: 20
Barnyardgrass plant response rating [9, 26]: 90
Barnyardgrass plant response rating [9, 27]: 50
Crabgrass, Large plant response rating [10, 26]: 90
Crabgrass, Large plant response rating [10, 27]: 60
Foxtail, Giant plant response rating [11, 26]: 90
Foxtail, Giant plant response rating [11, 27]: 60
Morningglory plant response rating [12, 26]: 100
Morningglory plant response rating [12, 27]: 70
Pigweed plant response rating [13, 26]: 100
Pigweed plant response rating [13, 27]: 80
Velvetleaf plant response rating [14, 26]: 70
Velvetleaf plant response rating [14, 27]: 40
Wheat plant response rating [15, 26]: 40
Wheat plant response rating [15, 27]: 0
Corn plant response rating [16, 26]: 80
Corn plant response rating [16, 27]: 20
Plant response rating, Rice [17]: 20
Plant response rating, Sedge, Umbrella [18]: 90
Plant response rating, Ducksalad [19]: 90
Plant response rating, Barnyardgrass [20]: 20
Plant response rating, Rice [21, 29]: 0
Plant response rating, Rice [21, 30]: 0
Plant response rating, Rice ([21]; 125 g ai/ha, scale 0 to 100): 0
Plant response rating, Sedge, Umbrella [22, 29]: 0
Plant response rating, Sedge, Umbrella [22, 30]: 50
Plant response rating, Sedge, Umbrella ([22]; 125 g ai/ha, scale 0 to 100): 80
Plant response rating, Ducksalad [23, 29]: 0
Plant response rating, Ducksalad [23, 30]: 50
Plant response rating, Ducksalad ([23]; 125 g ai/ha, scale 0 to 100): 70
Plant response rating, Barnyardgrass [24, 29]: 0
Plant response rating, Barnyardgrass [24, 30]: 0
Plant response rating, Barnyardgrass ([24]; 125 g ai/ha, scale 0 to 100): 0

CCCCNC(=O)c1cc(CC)n(Cc2ccnc(C(F)(F)F)c2)n1 [Compound 141]
Barnyardgrass plant response rating [1, 32]: 70
Barnyardgrass plant response rating [1, 25]: 100
Crabgrass, Large plant response rating [2, 32]: 100
Crabgrass, Large plant response rating [2, 25]: 100
Foxtail, Giant plant response rating [3, 32]: 90
Foxtail, Giant plant response rating [3, 25]: 100
Morningglory plant response rating [4, 32]: 50
Morningglory plant response rating [4, 25]: 100
Pigweed plant response rating [5, 32]: 100
Pigweed plant response rating [5, 25]: 100
Velvetleaf plant response rating [6, 32]: 10
Velvetleaf plant response rating [6, 25]: 50
Wheat plant response rating [7, 32]: 30
Wheat plant response rating [7, 25]: 90
Corn plant response rating [8, 32]: 40
Corn plant response rating [8, 25]: 80
Barnyardgrass plant response rating [9, 26]: 80
Barnyardgrass plant response rating [9, 27]: 40
Crabgrass, Large plant response rating [10, 26]: 90
Crabgrass, Large plant response rating [10, 27]: 70
Foxtail, Giant plant response rating [11, 26]: 90
Foxtail, Giant plant response rating [11, 27]: 80
Morningglory plant response rating [12, 26]: 100
Morningglory plant response rating [12, 27]: 90
Pigweed plant response rating [13, 26]: 100
Pigweed plant response rating [13, 27]: 60
Velvetleaf plant response rating [14, 26]: 100
Velvetleaf plant response rating [14, 27]: 30
Wheat plant response rating [15, 26]: 80
Wheat plant response rating [15, 27]: 30
Corn plant response rating [16, 26]: 90
Corn plant response rating [16, 27]: 50
Plant response rating, Rice [17]: 20
Plant response rating, Sedge, Umbrella [18]: 95
Plant response rating, Ducksalad [19]: 100
Plant response rating, Barnyardgrass [20]: 45
Plant response rating, Rice [21, 29]: 0
Plant response rating, Rice [21, 30]: 0
Plant response rating, Rice ([21]; 125 g ai/ha, scale 0 to 100): 20
Plant response rating, Rice ([21]; 250 g ai/ha, scale 0 to 100): 20
Plant response rating, Sedge, Umbrella [22, 29]: 30
Plant response rating, Sedge, Umbrella [22, 30]: 70
Plant response rating, Sedge, Umbrella ([22]; 125 g ai/ha, scale 0 to 100): 95
Plant response rating, Sedge, Umbrella ([22]; 250 g ai/ha, scale 0 to 100): 100
Plant response rating, Ducksalad [23, 29]: 40
Plant response rating, Ducksalad [23, 30]: 80
Plant response rating, Ducksalad ([23]; 125 g ai/ha, scale 0 to 100): 95
Plant response rating, Ducksalad ([23]; 250 g ai/ha, scale 0 to 100): 100
Plant response rating, Barnyardgrass [24, 29]: 0
Plant response rating, Barnyardgrass [24, 30]: 0
Plant response rating, Barnyardgrass ([24]; 125 g ai/ha, scale 0 to 100): 20
Plant response rating, Barnyardgrass ([24]; 250 g ai/ha, scale 0 to 100): 35
